Data as given in the supplement of paper PMC11061612.

What was measured:
[1] = compound: CC1(C)CCC(CN2CCN(c3ccc(C(=O)NS(=O)(=O)c4ccc(NCC5CCOCC5)c([N+](=O)[O-])c4)c(Oc4cnc5[nH]ccc5c4)c3)CC2)=C(c2ccc(Cl)cc2)C1 [Venetoclax]; details: max 1 µM
Outline: (§1)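 Plates with 1536 wells received cancer cell lines in 7.5 μl of DMEM/F12 or RPMI containing 10% FBS. After 24 hours at 37°C and 5% CO2, cells were dosed for 72 hours with final DMSO typically 0.2%, and viability was read by CellTiter-Glo 2.0 luminescence scaled between blank-well and DMSO-well means. The single-agent IC50 was taken from a logistic fit of the dose responses made with a non-linear mixed effects model, that logistic curve having two parameters.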

[2] = compound: COc1nnc2ccc(N3CCC(c4ccc(OCCN5CCN(C)C(=O)[C@H]5C)cc4)CC3)nn12 [AZD5153]; details: max 1 µM
Outline: as §1

[3] = compound: C[C@@H](Nc1cc(F)cc(F)c1)c1cc(C(=O)N(C)C)cc2c(=O)cc(N3CCOCC3)oc12 [AZD8186]
Outline: as §1

[4] = compound: Cc1c2c(nn1C)CSCc1cc(n(C)n1)CSc1cc(c3ccccc3c1)OCCCc1c(C(=O)O)n(C)c3c-2c(Cl)ccc13 [AZD5991]; details: max 1 µM
Outline: as §1

[5] = compound: CN(CC[C@H](CSC1=CC=CC=C1)NC2=C(C=C(C=C2)S(=O)(=O)NC(=O)C3=CC=C(C=C3)N4CCC(CC4)[C@H](C5=CC=CC=C5C6=CC=C(C=C6)Cl)O)S(=O)(=O)C(F)(F)F)CCO [AZD4320]; details: max 1 µM
Outline: as §1

[6] = compound: Cc1nc(-c2cn3c(n2)-c2ccc(-c4cnn(C(C)(C)C(N)=O)c4)cc2OCC3)n(C(C)C)n1 [Taselisib]; details: max 10 µM
Outline: as §1

[7] = compound: C[C@@H](Oc1cc(-c2cnn(C3CCNCC3)c2)cnc1N)c1c(Cl)ccc(F)c1Cl [Crizotinib]; details: max 10 µM
Outline: as §1

[8] = compound: Cn1cnc2c(F)c(Nc3ccc(Br)cc3Cl)c(C(=O)NOCCO)cc21 [Selumetinib]; details: max 10 µM
Outline: as §1

[9] = compound: C=CCn1c(=O)c2cnc(Nc3ccc(N4CCN(C)CC4)cc3)nc2n1-c1cccc(C(C)(C)O)n1 [AZD1775]
Outline: as §1

[10] = compound: C[C@@H]1COCCN1C2=NC(=NC(=C2)C3(CC3)[S@](=N)(=O)C)C4=C5C=CNC5=NC=C4 [AZD6738]; details: max 10 µM
Outline: as §1

[11] = compound: CC(=O)Nc1cccc(-n2c(=O)n(C3CC3)c(=O)c3c(Nc4ccc(I)cc4F)n(C)c(=O)c(C)c32)c1 [Trametinib]; details: max 1 µM
Outline: as §1

[12] = compound: COc1cccc(OCCCN)c1-c1cc(Nc2cnc(C#N)cn2)n[nH]1 [Prexasertib]; details: max 1 µM
Outline: as §1

[13] = compound: CN(C)CCCOc1ccc(-c2ccc3ncc4c(c3c2)n(C2CCOCC2)c(=O)n4C)cn1 [AZD0156]
Outline: as §1

[14] = compound: C1CN(CCC1(C(=O)N[C@@H](CCO)C2=CC=C(C=C2)Cl)N)C3=NC=NC4=C3C=CN4 [Capivasertib]; details: max 10 µM
Outline: as §1

[15] = compound: CCc1c2c(nc3ccc(O)cc13)-c1cc3c(c(=O)n1C2)COC(=O)[C@]3(O)CC [SN-38]; details: max 0.3 µM
Outline: as §1

[16] = compound: COc1cc(Nc2ncc3c(n2)-c2ccc(Cl)cc2C(c2c(F)cccc2OC)=NC3)ccc1C(=O)O [Alisertib]; details: max 10 µM
Outline: as §1

[17] = compound: Cc1cc2ncnn2cc1Nc1ncc2c(n1)n(C1CCOCC1)c(=O)n2C [AZD7648]; details: max 10 µM
Outline: as §1

[18] = compound: COc1cccc2c1C(=O)c1c(O)c3c(c(O)c1C2=O)C[C@@](O)(C(=O)CO)C[C@@H]3O[C@H]1C[C@H](N)[C@H](O)[C@H](C)O1 [Doxorubicin]; details: max 1 µM
Outline: as §1

[19] = compound: CC1=CN2[C@@H](C1)C=NC3=CC(=C(C=C3C2=O)OC)OCCCCCOC4=C(C=C5C(=C4)N=C[C@@H]6CC(=CN6C5=O)C)OC [SG3199]; details: max 0.001 µM
Outline: as §1

[20] = compound: O=C(c1cc(Cc2n[nH]c(=O)c3ccccc23)ccc1F)N1CCN(C(=O)C2CC2)CC1 [Olaparib]; details: max 10 µM
Outline: as §1

[21] = compound: CC(C)n1c(=O)n(C)c2cnc3cc(F)c(-c4ccc(OCCCN5CCCCC5)nc4)cc3c21 [AZD1390]; details: max 0.3 µM
Outline: as §1

[22] = compound: COc1cc2ncnc(Nc3ccc(F)c(Cl)c3)c2cc1OCCCN1CCOCC1 [Gefitinib]; details: max 10 µM
Outline: as §1

[23] = compound: C[C@@H](c1ccc2nccn2c1)n1nnc2ncc(-c3cnn(C)c3)nc21 [Savolitinib]; details: max 1 µM
Outline: as §1

[24] = compound: CS(=O)(=O)CCNCc1ccc(-c2ccc3ncnc(Nc4ccc(OCc5cccc(F)c5)c(Cl)c4)c3c2)o1 [Lapatinib]; details: max 10 µM
Outline: as §1

[25] = compound: CC1=C(C(=CC=C1)Cl)NC(=O)C2=CN=C(S2)NC3=CC(=NC(=N3)C)N4CCN(CC4)CCO [Dasatinib]; details: max 2 µM
Outline: as §1

[26] = compound: CC(=O)c1c(C)c2cnc(Nc3ccc(N4CCNCC4)cn3)nc2n(C2CCCC2)c1=O [Palbociclib]; details: max 10 µM
Outline: as §1

[27] = compound: CCN(CCO)CCCOc1ccc2c(Nc3cc(CC(=O)Nc4cccc(F)c4)[nH]n3)ncnc2c1 [AZD2811]; details: max 1 µM
Outline: as §1

[28] = compound: O=C(Nc1ccc2[nH]nc(-c3ccncc3)c2c1)[C@@H]1CCN(CC(=O)N2CCN(c3ccc(-c4ncccn4)cc3)CC2)C1; details: max 5 µM
Outline: as §1

[29] = compound: O=c1[nH]cc(F)c(=O)[nH]1 [5-Fluorouracil]; details: max 20 µM
Outline: as §1

[30] = compound: NC1(c2ccc(-c3nc4ccn5c(=O)[nH]nc5c4cc3-c3ccccc3)cc2)CCC1 [MK-2206]; details: max 10 µM
Outline: as §1

[31] = compound: COc1cc([C@@H]2c3cc4c(cc3[C@@H](O[C@@H]3O[C@@H]5CO[C@@H](C)O[C@H]5[C@H](O)[C@H]3O)[C@H]3COC(=O)[C@H]23)OCO4)cc(OC)c1O [Etoposide]; details: max 10 µM
Outline: as §1

[32] = compound: C1CN(CCC1(C(=O)N[C@@H](CCO)C2=CC=C(C=C2)Cl)N)C3=NC=NC4=C3C=CN4 [AZD5363]; details: max 10 µM
Outline: as §1

[33] = compound: CC(=O)O[C@H]1C(=O)[C@@]2(C)[C@H]([C@H](OC(=O)c3ccccc3)[C@]3(O)C[C@H](OC(=O)[C@H](O)[C@@H](NC(=O)c4ccccc4)c4ccccc4)C(C)=C1C3(C)C)[C@]1(OC(C)=O)CO[C@@H]1C[C@@H]2O [Paclitaxel]; details: max 3 µM
Outline: as §1

[34] = compound: C1CC(C1)(C(=O)[O-])C(=O)[O-].N.N.[Pt+2] [Carboplatin]; details: max 10 µM
Outline: as §1

[35] = compound: Nc1ccn([C@@H]2O[C@H](CO)[C@@H](O)C2(F)F)c(=O)n1 [Gemcitabine]; details: max 0.3 µM
Outline: as §1

[36] = compound: N#Cc1cnc(Nc2cc(NC[C@H]3CNCCO3)c(C(F)(F)F)cn2)cn1 [SRA737]; details: max 10 µM
Outline: as §1

Row | Cell Line | IC50, cell viability 72 h [1] [nM] | IC50, cell viability 72 h [2] [nM] | IC50, cell viability 72 h ([3]; max 3 µM) [nM] | IC50, cell viability 72 h [4] [nM] | IC50, cell viability 72 h [5] [nM] | IC50, cell viability 72 h [6] [nM] | IC50, cell viability 72 h [7] [nM] | IC50, cell viability 72 h [8] [nM] | IC50, cell viability 72 h ([9]; max 3 µM) [nM] | IC50, cell viability 72 h [10] [nM] | IC50, cell viability 72 h [11] [nM] | IC50, cell viability 72 h [12] [nM] | IC50, cell viability 72 h ([13]; max 3 µM) [nM] | IC50, cell viability 72 h [14] [nM] | IC50, cell viability 72 h [15] [nM] | IC50, cell viability 72 h [16] [nM] | IC50, cell viability 72 h [17] [nM] | IC50, cell viability 72 h [18] [nM] | IC50, cell viability 72 h [19] [nM] | IC50, cell viability 72 h [20] [nM] | IC50, cell viability 72 h [21] [nM] | IC50, cell viability 72 h [22] [nM] | IC50, cell viability 72 h [23] [nM] | IC50, cell viability 72 h [24] [nM] | IC50, cell viability 72 h [25] [nM] | IC50, cell viability 72 h [26] [nM] | IC50, cell viability 72 h [27] [nM] | IC50, cell viability 72 h ([3]; max 10 µM) [nM] | IC50, cell viability 72 h [28] [nM] | IC50, cell viability 72 h ([9]; max 1 µM) [nM] | IC50, cell viability 72 h [29] [nM] | IC50, cell viability 72 h ([13]; max 1 µM) [nM] | IC50, cell viability 72 h [30] [nM] | IC50, cell viability 72 h [31] [nM] | IC50, cell viability 72 h [32] [nM] | IC50, cell viability 72 h [33] [nM] | IC50, cell viability 72 h [34] [nM] | IC50, cell viability 72 h [35] [nM] | IC50, cell viability 72 h [36] [nM]
1 | 23132-87 (Gastric Carcinoma) | > 1000 | > 1000 | > 3000 | 348 | > 1000 | > 10000 | > 10000 | > 10000 | 375 | 4790 | > 1000 | 32.6 | > 3000 | > 10000 | 22.1 | > 10000 | > 10000 | 369 | > 1 | > 10000 | > 300 | > 10000 | > 1000 | > 10000 | > 2000 | > 10000 | > 1000 |  |  |  |  |  |  |  |  |  |  |  | 
2 | KE-37 (T-Lymphoblastic Leukemia) | > 1000 | 210 | > 3000 | 267 | 28.3 | 3110 | 3220 | > 10000 | 129 | 403 | > 1000 | 4.58 | > 3000 | 1100 | 1.86 | 125 | 8540 | 53.8 | > 1 | > 10000 | > 300 | > 10000 | > 1000 | 8530 | > 2000 | 3850 | 20.5 |  |  |  |  |  |  |  |  |  |  |  | 
3 | GB-1 (Glioblastoma) | > 1000 | > 1000 | > 3000 | > 1000 | > 1000 | 9750 | > 10000 | > 10000 | > 3000 | > 10000 | > 1000 | 951 | > 3000 | > 10000 | 32.7 | > 10000 | > 10000 | > 1000 | > 1 | > 10000 | > 300 | > 10000 | > 1000 | > 10000 | > 2000 | > 10000 | > 1000 |  |  |  |  |  |  |  |  |  |  |  | 
4 | TE-8 (Esophageal Squamous Cell Carcinoma) | > 1000 | > 1000 |  | > 1000 | > 1000 | 2650 | > 10000 | > 10000 |  | 4150 | 633 | 24.3 |  |  | 169 | 5140 | > 10000 | > 1000 | > 1 | > 10000 | > 300 | > 10000 | > 1000 | > 10000 | 362 | > 10000 | > 1000 | > 10000 | 3840 | 503 | > 20000 | > 1000 | > 10000 | > 10000 | > 10000 | 109 | > 10000 | > 300 | > 10000
5 | CAL-62 (Thyroid Gland Carcinoma) | > 1000 | 127 |  | > 1000 | > 1000 | > 10000 | > 10000 | > 10000 | 1320 | 5210 | 551 | 158 | > 3000 |  | 4.59 | > 10000 | > 10000 | 372 | > 1 | > 10000 | > 300 | > 10000 | > 1000 | > 10000 | 784 | > 10000 | > 1000 | > 10000 | 4090 |  | > 20000 |  | > 10000 | 3420 | > 10000 | 7.33 | > 10000 | 35.5 | > 10000
6 | SK-PN-DW (Other Solid Carcinomas) | 757 | 562 |  | 70 | > 1000 | 4420 | 4410 | > 10000 | 1590 | 558 | > 1000 | 5.83 | > 3000 |  | 4.05 | 119 | > 10000 | 199 | > 1 | > 10000 | > 300 | > 10000 | > 1000 | > 10000 | > 2000 | > 10000 | 191 | > 10000 | > 5000 |  | 5010 |  | > 10000 | 1530 | 4780 | 11 | > 10000 | > 300 | 986
